Experiment: CO release rates from free CORM and OCORS systems
Format: physicochemical
Protocol: This example illustrates the influence of the wall thickness of the silicone membrane on the release rate of the therapeutic gas.
The trigger compounds FeCl3 and Na2SO3 were used in aqueous solution and in molar excess amounts relative to the CORM.
In Table 1, Cmax describes the highest value measured for the therapeutic gas concentration. Tmax is the time, at which this value was measured. 090% describes 90% of Cmax, and T90% is the time point, at which 90% of Cmax were released. For the free metal carbonyl, a different release vessel was used than for the CO releasing systems, and therefore, the absolute values for Cmax differ.

[1] = trigger in aqueous solution in molar excess

C90% (90% of Cmax) (free carbonyl measured in a different release vessel): 576.7 ppm
Cmax (highest value measured for the therapeutic gas concentration) (trigger in aqueous solution in molar excess, free carbonyl measured in a different release vessel than the OCORS systems): 640.8 ppm
SMILES: [C-]#[N+]CC(=O)O.[C-]#[N+]CC(=O)O.[C-]#[N+]CC(=O)O.[C-]#[O+].[C-]#[O+].[C-]#[O+].[Mo] [Entry 1, Mo(CO)3(CNCH2CO2H)3]
T90% (time point at which 90% of Cmax were released) [1]: 17 min
Tmax (time at which Cmax was measured) [1]: 44 min

Reference: patent US12569448B2, “Membrane-based two component therapeutic gas release system for oral administration” (Julius-Maximilians-Universitaet Wuerzburg, priority 2019, dated 2026)
